Test results taken from patent publication US8148391B2 (Cephalon, Inc., priority 2006, dated 2012).
Read-outs that look alike come from different tables or passages of the source. One block for each molecule: values may come before it.

What was measured:
[1] = target: T1, c-Met (cytoplasmic domain) (Homo sapiens, UniProt P08581); assay: c-Met Kinase Assay (same methods as for ALK, with modifications); format: biochemical
T1 construct: 10 ng/mL c-Met (cytoplasmic domain, Invitrogen Corporation #PV3143); purchased Invitrogen Corporation PV3143
How it was run: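 Wells were coated with 10 μg/mL phospholipase C-γ substrate in TBS, and reactions were started with 10 ng/mL c-Met cytoplasmic domain and run at 37° C for 15 minutes. Phosphorylated product was detected with Eu-N1-labeled PT66 antibody. IC50 values came from sigmoidal variable-slope fits of percent inhibition versus log compound concentration.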

[2] = target: T2, baculovirus-expressed ALK (Homo sapiens, UniProt Q9UM73); assay: ALK Kinase Assay (ELISA-type, time-resolved fluorescence); format: biochemical
T2 construct: host or cells: baculovirus expression system
How it was run: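 Substrate coating: phospholipase C-γ, 10 μg/mL in TBS. Kinase step: 30 ng/ml ALK, 15 min, 37° C. Detection and analysis: Eu-N1 PT66 antibody, with IC50 fitted as a sigmoidal variable-slope dose-response curve.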

[3] = 1 μM ATP (Km level), 10 ng/mL c-Met, read-out: cMet Activity (c-Met kinase inhibition, IC50 class)
[4] = 1 μM ATP (Km level), 30 ng/ml ALK, 37° C., 15 minutes, read-out: ALK Activity (ALK kinase inhibition, IC50 class)
[5] = c-Met kinase inhibition, 1 μM ATP (Km level), read-out: cMet Activity
[6] = ALK kinase inhibition, 1 μM ATP (Km level), read-out: ALK Activity
[7] = 1 μM ATP (Km level), read-out: cMet Activity (c-Met Kinase Inhibition, IC50)
[8] = 1 μM ATP (Km level), read-out: ALK Activity (ALK Kinase Inhibition, IC50)
[9] = c-Met kinase inhibition, 1 μM ATP, read-out: cMet Activity
[10] = ALK kinase inhibition, 1 μM ATP, read-out: ALK Activity

T1 sequence (P08581 956-1390 limits assumed): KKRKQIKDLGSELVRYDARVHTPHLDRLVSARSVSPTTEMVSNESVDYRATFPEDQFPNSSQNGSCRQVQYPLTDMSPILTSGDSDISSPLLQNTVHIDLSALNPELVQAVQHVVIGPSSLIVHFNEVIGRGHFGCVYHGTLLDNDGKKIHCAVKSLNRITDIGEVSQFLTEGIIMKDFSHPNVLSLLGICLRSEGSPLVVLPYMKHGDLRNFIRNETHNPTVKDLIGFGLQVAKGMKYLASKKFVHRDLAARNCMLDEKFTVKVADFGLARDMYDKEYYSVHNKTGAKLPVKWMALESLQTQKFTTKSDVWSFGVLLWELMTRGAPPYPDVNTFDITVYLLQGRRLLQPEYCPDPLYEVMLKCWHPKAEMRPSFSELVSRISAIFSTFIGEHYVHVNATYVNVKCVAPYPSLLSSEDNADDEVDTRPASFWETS
T2 sequence (Q9UM73 19-1620): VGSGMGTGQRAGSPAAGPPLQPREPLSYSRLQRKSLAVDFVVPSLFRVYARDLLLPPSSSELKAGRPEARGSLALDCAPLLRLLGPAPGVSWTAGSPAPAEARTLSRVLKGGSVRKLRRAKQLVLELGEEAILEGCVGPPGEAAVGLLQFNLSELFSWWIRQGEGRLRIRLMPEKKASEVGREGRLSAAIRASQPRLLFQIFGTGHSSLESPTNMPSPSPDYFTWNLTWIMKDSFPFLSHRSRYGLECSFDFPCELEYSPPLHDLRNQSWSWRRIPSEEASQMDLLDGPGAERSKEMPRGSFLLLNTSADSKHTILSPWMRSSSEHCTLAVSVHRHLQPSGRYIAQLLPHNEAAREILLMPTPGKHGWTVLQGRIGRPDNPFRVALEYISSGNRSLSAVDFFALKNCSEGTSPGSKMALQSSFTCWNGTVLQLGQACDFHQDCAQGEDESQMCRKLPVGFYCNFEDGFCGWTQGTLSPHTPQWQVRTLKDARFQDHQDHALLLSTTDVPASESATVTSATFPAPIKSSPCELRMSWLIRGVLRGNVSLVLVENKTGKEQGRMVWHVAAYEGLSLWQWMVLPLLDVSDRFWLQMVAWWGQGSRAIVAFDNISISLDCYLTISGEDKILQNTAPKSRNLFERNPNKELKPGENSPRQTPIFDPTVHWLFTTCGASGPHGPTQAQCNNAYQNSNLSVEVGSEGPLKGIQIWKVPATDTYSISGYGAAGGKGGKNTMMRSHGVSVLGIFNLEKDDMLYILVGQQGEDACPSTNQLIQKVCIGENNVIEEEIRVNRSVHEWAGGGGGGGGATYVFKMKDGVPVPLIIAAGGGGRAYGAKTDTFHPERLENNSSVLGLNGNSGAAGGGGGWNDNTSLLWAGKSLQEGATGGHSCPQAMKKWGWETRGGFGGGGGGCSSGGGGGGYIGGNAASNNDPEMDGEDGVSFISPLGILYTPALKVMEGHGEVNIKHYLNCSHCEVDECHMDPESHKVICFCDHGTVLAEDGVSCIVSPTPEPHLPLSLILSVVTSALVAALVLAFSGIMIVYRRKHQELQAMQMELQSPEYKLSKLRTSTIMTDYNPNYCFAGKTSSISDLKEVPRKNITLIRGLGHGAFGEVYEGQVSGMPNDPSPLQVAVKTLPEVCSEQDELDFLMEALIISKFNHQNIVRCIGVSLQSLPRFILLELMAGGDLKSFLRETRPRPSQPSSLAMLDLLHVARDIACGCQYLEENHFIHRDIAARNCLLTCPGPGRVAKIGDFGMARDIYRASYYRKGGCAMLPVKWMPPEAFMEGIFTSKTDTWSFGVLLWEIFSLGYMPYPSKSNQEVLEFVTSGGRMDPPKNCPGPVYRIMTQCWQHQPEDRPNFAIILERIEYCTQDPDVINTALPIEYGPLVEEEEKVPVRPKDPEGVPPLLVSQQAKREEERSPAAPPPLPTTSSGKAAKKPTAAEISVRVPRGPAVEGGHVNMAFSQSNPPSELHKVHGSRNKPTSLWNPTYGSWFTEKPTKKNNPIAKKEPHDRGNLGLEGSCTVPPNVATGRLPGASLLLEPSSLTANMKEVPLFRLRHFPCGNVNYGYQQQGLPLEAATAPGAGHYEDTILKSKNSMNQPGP

IC50 [1, 3]: > 10 µM | IC50 [2, 4]: 0.1 to 1 µM
Molecule: COc1ccc2c(c1Nc1ncc(Cl)c(Nc3ccccc3-n3cccn3)n1)CCC(N1CCOCC1)CC2 (centres unmarked) [Example 1071, 5-Chloro-N*2*-(2-methoxy-7-morpholin-4-yl-6,7,8,9-tetrahydro-5H-benzocyclohepten-1-yl)-N*4*-(2-pyrazol-1-yl-phenyl)-pyrimidine-2,4-diamine]

IC50 [1, 3]: > 10 µM | IC50 [2, 4]: < 0.1 µM
Molecule: CCN1C(=O)CCCc2cc(Nc3ncc(Cl)c(Nc4ccccc4-n4cccn4)n3)c(OC)cc21 [Example 1317, 7-[5-Chloro-4-(2-pyrazol-1-yl-phenylamino)-pyrimidin-2-ylamino]-1-ethyl-8-methoxy-1,3,4,5-tetrahydro-benzo[b]azepin-2-one]

IC50 [1, 5]: 0.1 to 1 µM | IC50 [2, 6]: > 10 µM
Molecule: CNC(=O)c1cccc(C)c1Nc1nc(Nc2ccc3c(c2)C(=O)NCCC3)ncc1Cl [Example 401, 2-[5-Chloro-2-(1-oxo-2,3,4,5-tetrahydro-1H-benzo[c]azepin-8-ylamino)-pyrimidin-4-ylamino]-3,N-dimethyl-benzamide]

IC50 [1, 7]: > 10 µM | IC50 [2, 8]: > 10 µM
Molecule: COc1ccc2c(c1Nc1ncc(Cl)c(Nc3ccccc3-c3nccn3C)n1)NC(=O)CCC2(C)C [Example 998, 9-{5-Chloro-4-[2-(1-methyl-1H-imidazol-2-yl)-phenylamino]-pyrimidin-2-ylamino}-8-methoxy-5,5-dimethyl-1,3,4,5-tetrahydro-benzo[b]azepin-2-one]

IC50 [1, 5]: 0.1 to 1 µM | IC50 [2, 6]: < 0.1 µM
Molecule: CS(=O)(=O)N1CCc2ccc(Nc3ncc(Cl)c(NC4C5C=CC(C5)C4C(N)=O)n3)cc2CC1 (stereo not drawn) [Example 321, (2-exo, 3-exo)-3-[5-Chloro-2-(3-methanesulfonyl-2,3,4,5-tetrahydro-1H-benzo[d]azepin-7-ylamino)-pyrimidin-4-ylamino]-bicyclo[2.2.1]hept-5-ene-2-carboxylic acid amide]

IC50 [1, 5]: < 0.1 µM | IC50 [2, 6]: < 0.1 µM
Molecule: CN1C(=O)CCCc2cc(Nc3ncc(Cl)c(Nc4ccccc4C(=O)NCCO)n3)ccc21 [Example 6, 2-[5-Chloro-2-(1-methyl-2-oxo-2,3,4,5-tetrahydro-1H-benzo[b]azepin-7-ylamino)-pyrimidin-4-ylamino]-N-(2-hydroxy-ethyl)-benzamide]

IC50 [1, 7]: > 10 µM | IC50 [2, 8]: < 0.1 µM
Molecule: (1S,2S,3R,4R)-3-[5-Chloro-2-[4-cyclopropylmethyl-7-methoxy-2,3,4,5-tetrahydro-1H-benzo[e][1,4]diazepin-8-ylamino)-pyrimidin-4-ylamino]-bicyclo(2.2.1)hept-5-ene-2-carboxylic acid amide [Example 747]

IC50 [1, 7]: < 0.1 µM | IC50 [2, 8]: < 0.1 µM
Molecule: CNC(=O)c1ccccc1Nc1nc(Nc2ccc3c(c2)NC(=O)CCC3)ncc1Cl [Example 513, 2-[5-Chloro-2-(2-oxo-2,3,4,5-tetrahydro-1H-benzo[b]azepin-8-ylamino)-pyrimidin-4-ylamino]-N-methyl benzamide]

IC50 [1, 5]: 0.1 to 1 µM | IC50 [2, 6]: < 0.1 µM
Molecule: CO[C@@H](CN1CCc2ccc(Nc3ncc(Cl)c(N[C@@H]4CCCC[C@H]4NS(C)(=O)=O)n3)cc2CC1)C(F)(F)F [Example 336, N-((1R,2R)-2-{5-Chloro-2-[3-((S)-3,3,3-trifluoro-2-methoxy-propyl)-2,3,4,5-tetrahydro-1H-benzo[d]azepin-7-ylamino]-pyrimidin-4-ylamino}-cyclohexyl)-methanesulfonamide]

IC50 [1, 9]: < 0.1 µM | IC50 [2, 10]: 1 to 10 µM
Molecule: O=C1Cc2ccc(Nc3ncc(Cl)c(Nc4ccccc4-n4cccn4)n3)cc2CCN1 [Example 1813, 7-[5-Chloro-4-(2-pyrazol-1-yl-phenylamino)-pyrimidin-2-ylamino]-1,3,4,5-tetrahydro-benzo[d]azepin-2-one]

IC50 [1, 9]: > 10 µM | IC50 [2, 10]: < 0.1 µM
Molecule: COc1cc2c(cc1Nc1ncc(Cl)c(NC3C4C=CC(C4)C3C(N)=O)n1)NC(=O)CN(Cc1ccccc1)C2 (centres unmarked) [Example 1652, 3-[2-(4-Benzyl-7-methoxy-2-oxo-2,3,4,5-tetrahydro-1H-benzo[e][1,4]diaz-epin-8-ylamino)-5-chloro-pyrimidin-4-ylamino]-bicyclo[2.2.1]hept-5-ene-2-carboxylic acid amide]

IC50 [1, 5]: 1 to 10 µM | IC50 [2, 6]: 0.1 to 1 µM
Molecule: CCN1CCc2ccc(Nc3ncc(Cl)c(NCC(C)(C)NS(C)(=O)=O)n3)cc2CC1 [Example 304, N-{2-[5-Chloro-2-(3-ethyl-2,3,4,5-tetrahydro-1H-benzo[d]azepin-7-ylamino)-pyrimidin-4-ylamino]-1,1-dimethyl-ethyl}-methanesulfonamide]

IC50 [1, 3]: < 0.1 µM | IC50 [2, 4]: < 0.1 µM
Molecule: CC1(C)CCC(=O)Nc2cc(Nc3ncc(Cl)c(N[C@H]4[C@@H](C(N)=O)[C@@H]5C=C[C@H]4C5)n3)ccc21 [Example 1236, (1S,2S,3R,4R)-3-[5-Chloro-2-(5,5-dimethyl-2-oxo-2,3,4,5-tetrahydro-1H-1-benzazepin-8-ylamino)-pyrimidin-4-ylamino]-bicyclo[2.2.1]hept-5-ene-2-carboxylic acid amide]

IC50 [1, 3]: > 10 µM | IC50 [2, 4]: < 0.1 µM
Molecule: COc1cc2c(cc1Nc1ncc(Cl)c(N[C@H]3[C@@H](C(N)=O)[C@@H]4C=C[C@H]3C4)n1)CCC(NCC(F)F)CC2 (single isomer, unassigned) [Example 1053]

IC50 [1, 5]: > 10 µM | IC50 [2, 6]: < 0.1 µM
Molecule: COc1cc(N2CCOCC2)ccc1Nc1nc(Nc2ccc3c(c2OC)CCCC(=O)N3C)ncc1Cl [Example 117, 7-[5-Chloro-4-(2-methoxy-4-morpholin-4-yl-phenylamino)-pyrimidin-2-ylamino]-6-methoxy-1-methyl-1,3,4,5-tetrahydro-benzo[b]azepin-2-one]

IC50 [1, 7]: 1 to 10 µM | IC50 [2, 8]: 0.1 to 1 µM
Molecule: Cc1nnc(-c2ccccc2Nc2nc(Nc3ccc4c(c3)C(C)(C)CCC(=O)N4)ncc2Cl)s1 [Example 973, 7-{5-Chloro-4-[2-(5-methyl-[1,3,4]thiadiazol-2-yl)-phenylamino]-pyrimidin-2-ylamino}-5,5-dimethyl-1,3,4,5-tetrahydro-benzo[b]azepin-2-one]

IC50 [1, 5]: > 10 µM | IC50 [2, 6]: < 0.1 µM
Molecule: COc1cc(N2CCOCC2)ccc1Nc1nc(Nc2ccc(OC)c3c2N(C)C(=O)CCC3)ncc1Cl [Example 124, 9-[5-Chloro-4-(2-methoxy-4-morpholin-4-yl-phenylamino)-pyrimidin-2-ylamino]-6-methoxy-1-methyl-1,3,4,5-tetrahydro-benzo[b]azepin-2-one]

IC50 [1, 7]: > 10 µM | IC50 [2, 8]: 0.1 to 1 µM
Molecule: CCN1CC(=O)N(CC)c2cc(Nc3ncc(Cl)c(N[C@H]4[C@@H](C(N)=O)[C@@H]5C=C[C@H]4C5)n3)c(OC)cc2C1 [Example 739, (1S,2,3R,4R)-3-[5-Chloro-2-(1,4-diethyl-7-methoxy-2-oxo-2,3,4,5-tetrahydro-1H-benzo[e][1,4]diazepin-8-ylamino)-pyrimidin-4-ylamino]-bicyclo(2.2.1)hept-5-ene-2-carboxylic acid amide]

IC50 [1, 5]: 1 to 10 µM | IC50 [2, 6]: 1 to 10 µM
Molecule: CCN1CCc2ccc(Nc3ncc(Cl)c(NCCCC(=O)NC)n3)cc2CC1 [Example 212, 4-[5-Chloro-2-(3-ethyl-2,3,4,5-tetrahydro-1H-benzo[d]azepin-7-ylamino)-pyrimidin-4-ylamino]-N-methyl-butyramide]

IC50 [1, 3]: 1 to 10 µM | IC50 [2, 4]: < 0.1 µM
Molecule: COc1cc2c(cc1Nc1ncc(Cl)c(Nc3ccccc3-n3cccn3)n1)CCC(NCCO)CC2 (centres unmarked) [Example 1091, 2-{2-[5-Chloro-4-(2-pyrazol-1-yl-phenylamino)-pyrimidin-2-ylamino]-3-methoxy-6,7,8,9-tetrahydro-5H-benzocyclohepten-7-ylamino}-ethanol]

IC50 [1, 9]: < 0.1 µM | IC50 [2, 10]: 1 to 10 µM
Molecule: CNC(=O)c1scc(C)c1Nc1nc(Nc2ccc3c(c2)CCC(=O)NC3(C)C)ncc1Cl [Example 1829]

Molecule: CCN1C2CCC1c1c(ccc(Nc3ncc(Cl)c(N[C@@H]4CCCC[C@H]4NS(C)(=O)=O)n3)c1OC)C2 (stereo partly drawn) [Example 93, N-{(1R,2R)-2-[5-Chloro-2-(12-ethyl-3-methoxy-12-aza-tricyclo[7.2.1.0*2,7*]dodeca-2(7),3,5-trien-4-ylamino)-pyrimidin-4-ylamino]-cyclohexyl}-methanesulfonamide]
IC50 [1, 5]: > 10 µM | IC50 [2, 6]: > 10 µM

IC50 [1, 9]: 0.1 to 1 µM | IC50 [2, 10]: 0.1 to 1 µM
Molecule: C#CCNC(=O)c1cccc(F)c1Nc1nc(Nc2ccc3c(c2)OCC(O)(CO)CN3CC)ncc1Cl (centres unmarked) [Example 1735, 2-[5-Chloro-2-(9-ethyl-7-hydroxy-7-hydroxymethyl-6,7,8,9-tetrahydro-5-oxa-9-aza-benzocyclohepten-3-ylamino)-pyrimidin-4-ylamino]-3-fluoro-N-prop-2-ynyl-benzamide]

IC50 [1, 3]: 1 to 10 µM | IC50 [2, 4]: < 0.1 µM
Molecule: CC1(C)CCC(=O)Nc2ccc(Nc3ncc(Cl)c(Nc4c(F)cccc4S(C)(=O)=O)n3)cc21 [Example 1260, 7-[5-Chloro-4-(2-fluoro-6-methanesulfonyl-phenylamino)-pyrimidin-2-ylamino]-5,5-dimethyl-1,3,4,5-tetrahydro-1-benzazepin-2-one]

IC50 [1, 7]: > 10 µM | IC50 [2, 8]: < 0.1 µM
Molecule: CCNC(=O)c1ccccc1Nc1nc(Nc2cc3c(cc2OC)CCN(CC(F)F)CC3)ncc1Cl [Example 767, 2-{5-Chloro-2-[3-(2,2-difluoro-ethyl)-8-methoxy-2,3,4,5-tetrahydro-1H-benzo[d]azepin-7-ylamino]-pyrimidin-4-ylamino}-N-ethyl-benzamide]
